For 9 compounds, zone of inhibition, MIC and Activity results are on record in ChEMBL document CHEMBL2424519, “DABCO-promoted one-pot synthesis of heteroaryl-substituted benzenes and their biological evaluation” (2013).

SMILES strings stand for the structures. ≈ marks a conversion by molar mass, not a printed value. Calls of active or inactive are those of the source. The calls are words filed in the database; no cut-off is given here.

The test system of experiment [1] is Salmonella typhi. Briefly: Antibacterial activity against Salmonella typhi at 10 mg/ml after 24 hrs by agar-diffusion technique. Format: functional, Salmonella enterica subsp. enterica serovar Typhi. The following applies: Salmonella enterica, read-out: IZ.
Experiment [2] concerns Aspergillus flavus. Briefly: Antifungal activity against Aspergillus flavus at 10 mg/ml after 7 days by disc diffusion technique. Format: functional. The following applies: 168 h, read-out: IZ.
Experiment [3] deals with Candida albicans. Briefly: Antifungal activity against Candida albicans after 7 days by disc diffusion technique. It counts as functional. The following applies: 168 h.
In experiment [4] the test system is Candida tropicalis. Kind of experiment: Antifungal activity against Candida tropicalis at 10 mg/ml after 7 days by disc diffusion technique. It counts as functional. As to conditions: 168 h, read-out: IZ.
Experiment [5] concerns Escherichia coli. Kind of experiment: Antibacterial activity against Escherichia coli after 24 hrs by agar-diffusion technique. It counts as functional.
The subject of experiment [6] is Klebsiella pneumoniae. Briefly: Antibacterial activity against Klebsiella pneumoniae after 24 hrs by agar-diffusion technique. Format: functional.
Experiment [7] has as its system Aspergillus niger. Kind of experiment: Antifungal activity against Aspergillus niger after 7 days by disc diffusion technique. Format: functional. As to conditions: 168 h.
Experiment [8] has as its system Pseudomonas aeruginosa. Kind of experiment: Antibacterial activity against Pseudomonas aeruginosa at 10 mg/ml after 24 hrs by agar-diffusion technique. Format: functional. The following applies: read-out: IZ.
For experiment [9], the system named is Mycobacterium tuberculosis. Kind of experiment: Antitubercular activity against Mycobacterium tuberculosis H37Rv at 1 ug/ml after 4 weeks by Lowenstein-Jensen medium method. It counts as functional, organism-based.
The subject of experiment [10] is Aspergillus niger. Kind of experiment: Antifungal activity against Aspergillus niger at 10 mg/ml after 7 days by disc diffusion technique. It counts as functional. The following applies: 168 h, read-out: IZ.
For experiment [11], the system named is Klebsiella pneumoniae. Briefly: Antibacterial activity against Klebsiella pneumoniae at 10 mg/ml after 24 hrs by agar-diffusion technique. As to conditions: read-out: IZ. Format: functional.
Experiment [12] concerns Mycobacterium tuberculosis. Briefly: Antitubercular activity against Mycobacterium tuberculosis H37Rv at 100 ug/ml after 4 weeks by Lowenstein-Jensen medium method. Format: functional, organism-based.
In experiment [13] the test system is Pseudomonas aeruginosa. Briefly: Antibacterial activity against Pseudomonas aeruginosa after 24 hrs by agar-diffusion technique. It counts as functional.
The subject of experiment [14] is Escherichia coli. Briefly: Antibacterial activity against Escherichia coli at 10 mg/ml after 24 hrs by agar-diffusion technique. It counts as functional. As to conditions: read-out: IZ.
In experiment [15] the test system is Candida tropicalis. Briefly: Antifungal activity against Candida tropicalis after 7 days by disc diffusion technique. Format: functional. As to conditions: 168 h.
For experiment [16], the system named is Salmonella typhi. Briefly: Antibacterial activity against Salmonella typhi after 24 hrs by agar-diffusion technique. Format: functional, Salmonella enterica subsp. enterica serovar Typhi. The following applies: Salmonella enterica.
In experiment [17] the test system is Mycobacterium tuberculosis. Kind of experiment: Antitubercular activity against Mycobacterium tuberculosis H37Rv at 10 ug/ml after 4 weeks by Lowenstein-Jensen medium method. It counts as functional, organism-based.
Experiment [18] has as its system Candida albicans. Briefly: Antifungal activity against Candida albicans at 10 mg/ml after 7 days by disc diffusion technique. Format: functional. The following applies: 168 h, read-out: IZ.
Experiment [19] concerns Aspergillus flavus. Kind of experiment: Antifungal activity against Aspergillus flavus after 7 days by disc diffusion technique. It counts as functional. The following applies: 168 h.

For `CCOC(=O)c1c(-c2ccc(OC)cc2)cc(-c2ccc[nH]2)c([N+](=O)[O-])c1N`, the zone of inhibition at 10000 µg/mL with Salmonella typhi [1] stood at 14 mm; in the experiment on Aspergillus flavus [2], 12 mm; in the experiment with Candida tropicalis [4], 10 mm; in the experiment with Pseudomonas aeruginosa [8], 12 mm; in the experiment with Aspergillus niger [10], 10 mm; in the experiment on Klebsiella pneumoniae [11], 16 mm. Also, the zone of inhibition at 10000 µg/mL with Escherichia coli [14] turned out to be 10 mm; with Candida albicans [18], 9 mm. Also, the MIC against Candida albicans [3], against Escherichia coli [5], in the experiment with Klebsiella pneumoniae [6], in the experiment with Aspergillus niger [7], in the experiment with Pseudomonas aeruginosa [13] and against Candida tropicalis [15] was 20 µg/mL (≈ 52.4 µM) in each case. Also, the MIC in the experiment on Salmonella typhi [16] and against Aspergillus flavus [19] was 20 µg/mL (≈ 52.4 µM) in each case. The outcome in experiment [9], in experiment [12] and in [17] was Active.

As to `N#Cc1c(-c2ccccc2)cc(-c2ccco2)c([N+](=O)[O-])c1N`, the zone of inhibition at 10000 µg/mL with Salmonella typhi [1] was determined as 16 mm; in the experiment with Aspergillus flavus [2], 14 mm; in the experiment on Candida tropicalis [4] it was 8 mm; in the experiment with Pseudomonas aeruginosa [8] it was 14 mm; in the experiment with Aspergillus niger [10], 8 mm; with Klebsiella pneumoniae [11] it was 12 mm. Also, the zone of inhibition at 10000 µg/mL in the experiment on Escherichia coli [14] was found to be 17 mm; in the experiment on Candida albicans [18], 10 mm. Moreover, the MIC in the experiment with Candida albicans [3], in the experiment on Escherichia coli [5], against Klebsiella pneumoniae [6], against Aspergillus niger [7], in the experiment with Pseudomonas aeruginosa [13] and against Candida tropicalis [15] was 20 µg/mL (≈ 65.5 µM) throughout. Besides, the MIC in the experiment on Salmonella typhi [16] and in the experiment with Aspergillus flavus [19] was 20 µg/mL (≈ 65.5 µM) each time. For the same compound, the outcome in experiment [9], in [12] and in experiment [17] was Active.

`NC(=O)c1cnccn1`: the outcome in [9], in experiment [12] and in experiment [17] was Active.

In the case of `CCOC(=O)c1c(-c2ccc(OC)cc2)cc(-c2cccs2)c([N+](=O)[O-])c1N`, the zone of inhibition at 10000 µg/mL with Salmonella typhi [1] is 16 mm; in the experiment with Aspergillus flavus [2], 14 mm; in the experiment with Candida tropicalis [4], 42 mm; in the experiment on Pseudomonas aeruginosa [8] it was 18 mm; in the experiment on Aspergillus niger [10], 18 mm; in the experiment with Klebsiella pneumoniae [11] it was 20 mm. Further, the zone of inhibition at 10000 µg/mL in the experiment with Escherichia coli [14] was determined as 14 mm; in the experiment on Candida albicans [18], 16 mm. Besides, the minimum inhibitory concentration (MIC) with Candida albicans [3], in the experiment on Escherichia coli [5], against Klebsiella pneumoniae [6], against Aspergillus niger [7], with Pseudomonas aeruginosa [13] and with Candida tropicalis [15] was 20 µg/mL (≈ 50.2 µM) in each case. In addition, the MIC in the experiment with Salmonella typhi [16] and in the experiment on Aspergillus flavus [19] was 20 µg/mL (≈ 50.2 µM) in each case. Also, the result in [9], in [12] and in experiment [17] was Active.

`CCOC(=O)c1c(-c2ccc(OC)cc2)cc(-c2ccco2)c([N+](=O)[O-])c1N`: the zone of inhibition at 10000 µg/mL is 7 mm in the experiment on Salmonella typhi [1]; 9 mm with Aspergillus flavus [2]; 8 mm in the experiment on Candida tropicalis [4]; 8 mm with Pseudomonas aeruginosa [8]; 10 mm in the experiment on Aspergillus niger [10]; 9 mm with Klebsiella pneumoniae [11]. The zone of inhibition at 10000 µg/mL in the experiment on Escherichia coli [14] stood at 10 mm; in the experiment on Candida albicans [18], 7 mm. Also, the minimal inhibitory concentration (MIC) against Candida albicans [3], with Escherichia coli [5], in the experiment with Klebsiella pneumoniae [6], in the experiment with Aspergillus niger [7], against Pseudomonas aeruginosa [13] and with Candida tropicalis [15] was 20 µg/mL (≈ 52.3 µM) each time. Also, the MIC against Salmonella typhi [16] and against Aspergillus flavus [19] was 20 µg/mL (≈ 52.3 µM) throughout. For the same compound, the result in experiment [9], in experiment [12] and in [17] was Active.

On to `O=C(O)c1cn(C2CC2)c2cc(N3CCNCC3)c(F)cc2c1=O` [CIPROFLOXACIN], for which the values for the zone of inhibition at 10000 µg/mL in the experiment with Salmonella typhi [1], in the experiment on Pseudomonas aeruginosa [8] and in the experiment on Klebsiella pneumoniae [11] were 24 mm, 23 mm and 22 mm, respectively.

Regarding `Clc1ccccc1C(c1ccccc1)(c1ccccc1)n1ccnc1` [CLOTRIMAZOLE], the zone of inhibition at 10000 µg/mL in the experiment on Aspergillus flavus [2] was 19 mm; in the experiment on Candida tropicalis [4], 21 mm; with Aspergillus niger [10], 23 mm; in the experiment on Candida albicans [18], 20 mm.

`N#Cc1c(-c2ccccc2)cc(-c2cccs2)c([N+](=O)[O-])c1N`: the zone of inhibition at 10000 µg/mL came out at 9 mm in the experiment on Salmonella typhi [1]; 12 mm in the experiment on Aspergillus flavus [2]; 21 mm in the experiment on Candida tropicalis [4]; 10 mm in the experiment on Pseudomonas aeruginosa [8]; 15 mm in the experiment on Aspergillus niger [10]; 8 mm in the experiment on Klebsiella pneumoniae [11]. Also, the zone of inhibition at 10000 µg/mL turned out to be 12 mm in the experiment on Escherichia coli [14] and 24 mm in the experiment on Candida albicans [18]. For the same compound, the MIC with Candida albicans [3], with Escherichia coli [5], against Klebsiella pneumoniae [6], in the experiment on Aspergillus niger [7], in the experiment on Pseudomonas aeruginosa [13] and against Candida tropicalis [15] was 20 µg/mL (≈ 62.2 µM) in each case. Moreover, the MIC in the experiment with Salmonella typhi [16] and with Aspergillus flavus [19] was 20 µg/mL (≈ 62.2 µM) throughout. The outcome in experiment [9], in [12] and in experiment [17] was Active.

With `N#Cc1c(-c2ccccc2)cc(-c2ccc[nH]2)c([N+](=O)[O-])c1N`, the zone of inhibition at 10000 µg/mL was 24 mm in the experiment on Salmonella typhi [1]; 16 mm in the experiment with Aspergillus flavus [2]; 12 mm in the experiment with Candida tropicalis [4]; 16 mm with Pseudomonas aeruginosa [8]; 20 mm in the experiment on Aspergillus niger [10]; 18 mm in the experiment with Klebsiella pneumoniae [11]. Besides, the zone of inhibition at 10000 µg/mL in the experiment with Escherichia coli [14] came to 14 mm; in the experiment on Candida albicans [18] it was 18 mm. The MIC in the experiment on Candida albicans [3], against Escherichia coli [5], against Klebsiella pneumoniae [6], in the experiment on Aspergillus niger [7], in the experiment with Pseudomonas aeruginosa [13] and with Candida tropicalis [15] was 20 µg/mL (≈ 65.7 µM) in each case. Besides, the MIC against Salmonella typhi [16] and with Aspergillus flavus [19] was 20 µg/mL (≈ 65.7 µM) throughout. The result in [9], in experiment [12] and in experiment [17] was Active.
